Measurements: patent publication US20030088057A1, “PEPTIDE SUBSTRATES PHOSPHORYLATED BY P21-ACTIVAGED PROTEIN KINASE STATEMENT REGARDING FEDERALLY SPONSORED REASEARCH OR DEVELOPMENT” (priority 1998, published 2003)
Entries after “also recorded” stand apart in the source; their conditions may differ. Read-outs that look alike come from different tables or passages of the source. No end group written: not given here.

Key:
γ-PAK [1] = assay: Rates of phosphorylation of synthetic peptides by γ-PAK; format: biochemical, rabbit; details: for substrate for γ-PAK (in words): synthetic peptides; for 32P incorporated, %: AKRASAA taken as 100%; for rate of phosphorylation compared to AKRASAA: relative to AKRASAA
From the text: (§1) A. Materials. γ-PAK was purified from rabbit reticulocytes to apparent homogeneity by chromatography on DEAE-cellulose, SP-Sepharose, protamine agarose, and FPLC on Mono S and Mono Q. Histone I (type IIIS), mixed histone (type IIAS), trypsin (L-1-tosylamido-2-phenylethyl chloromethyl ketone treated), soybean trypsin inhibitor, bovine serum albumin (fatty acid free), and myelin basic protein were purchased from Sigma. Purified histones 2B and 4 were purchased from Boehringer-Mannheim. Myosin light chain from rabbit skeletal muscle was a gift from Dr. James Stull, University of Texas Southwestern Medical Center, Dallas, Tex.; rat prolactin was provided by Dr. Ameae Walker, University of California, Riverside, Calif.; and the purified catalytic subunit of cAMP-dependent protein kinase from bovine heart was a gift from Dr. William H. Fletcher, J. L. Pettis Memorial V. A. Hospital, Loma Linda, Calif. Protein kinase C was purified from bovine brain according to the procedure of Walton et al. [Walton, G. M., et al., Anal Biochem., 161:425-437 (1987)], with modifications [Venema, R. C., et al., J. Biol. Chem., 266:5298-5302 (1991)]. The clone for GST-Cdc42 was generously provided by Dr. Channing Der, University of North Carolina, Chapel Hill, N.C. Cellulose thin-layer chromatography sheets were from Kodak.
(§2) D. Phosphorylation Assays. Phosphorylation of protein substrates was carried out in 35 μL reaction mixtures containing 20 mM Tris-HCl, pH 7.4, 10 mM MgCl2, 30 mM 2-mercaptoethanol, 0.2 mM ATP (specific activity =1000 cpm/pmol), 2 μg of protein substrate, and 20 units of active γ-PAK (an enzyme unit is defined as the amount of enzyme that incorporates 1 pmol of phosphate into histone IIAS/ min at 30°. Under these conditions, phosphate incorporation was linear and initial rates of phosphorylation were measured. After incubation at 30° C. for 15 min, reactions were terminated by the addition of 5 μL of 100 mM nonlabeled ATP and sample buffer for gel electrophoresis [Hathaway, G. M., et al., Methods Enzymol., 60:495-511 (1979)]. Reaction mixtures were subjected to SDS-PAGE on 15% polyacrylamide gels followed by autoradiography. Phosphorylation was quantified by excising the protein band and counting the incorporated ^32P in a liquid scintillation counter. The specific activity of γ-PAK was 400 pmol min^−1 μg^−1 as reported previously using 0.2 mM ATP and 1 mg/mL mixed histone as substrate [Rooney, R. D., et al., (1996), supra].
(§3) Assays with peptides (I mM) were carried out with γ-PAK (1.6-5.6 units) in 25 μL reaction mixtures incubated for 30 min at 30° C. under conditions described above, except that 0.4 mg/mL of bovine serum albumin was added and the specific activity of ATP was 300-2000 cpm/pmol. Reactions were terminated with 5 μL of 100 mM ATP, and the amount of ^32p incorporated was quantitated by precipitation of 20 μL aliquots on P81 phosphocellulose paper with 75 mM H3PO4 as described previously [Bensen, E. S., et al., Biochim. Biophys. Acta, 1292:249-258 (1996)]. Peptides containing only one basic amino acid were analyzed by thin-layer electrophoresis on cellulose sheets for 2 h at 600 V with pyridine/acetic acid/water (10:100:890), pH 3.5, as solvent, as described previously [Bensen, E. S., et al., supra]. Activation of γ-PAK by autophosphorylation in the presence of Cdc42(GTPγS) was performed as previously described [Jakobi, R., et al., supra]. γ-PAK was also activated by limited digestion with trypsin as described previously [Rooney, R. D., et al., (1996), supra].
Target sequence in this assay (Q29502 249-500 limits assumed): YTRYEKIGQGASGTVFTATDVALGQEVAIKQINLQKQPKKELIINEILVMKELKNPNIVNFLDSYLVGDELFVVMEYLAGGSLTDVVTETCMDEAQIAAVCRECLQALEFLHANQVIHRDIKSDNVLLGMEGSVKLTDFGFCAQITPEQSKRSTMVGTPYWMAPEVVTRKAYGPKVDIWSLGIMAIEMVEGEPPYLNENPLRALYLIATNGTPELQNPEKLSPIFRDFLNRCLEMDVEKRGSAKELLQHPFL

γ-PAK [2] = assay: Kinetic parameters (Km, Vmax) for phosphorylation of synthetic peptides by γ-PAK; format: biochemical, rabbit; details: for Km: read-out: Km
Procedure: as §3
Target sequence in this assay (Q29502 249-500 limits assumed): as above

γ-PAK [3] = target: T1, γ-PAK (Oryctolagus cuniculus, UniProt Q29502); assay: Phosphorylation of heptapeptides by Cdc42-activated γ-PAK with ATP(Mg) and ATP(Mn); format: biochemical, rabbit; details: γ-PAK 2.5 units, Cdc42(GTPγS)-activated; 10 mM MgCl2 or 6 mM MnCl2
T1 construct: γ-PAK was purified from rabbit reticulocytes to apparent homogeneity; from tissue; host or cells: rabbit reticulocytes (γ-PAK)
T1 sequence (Q29502 2-524 limits assumed): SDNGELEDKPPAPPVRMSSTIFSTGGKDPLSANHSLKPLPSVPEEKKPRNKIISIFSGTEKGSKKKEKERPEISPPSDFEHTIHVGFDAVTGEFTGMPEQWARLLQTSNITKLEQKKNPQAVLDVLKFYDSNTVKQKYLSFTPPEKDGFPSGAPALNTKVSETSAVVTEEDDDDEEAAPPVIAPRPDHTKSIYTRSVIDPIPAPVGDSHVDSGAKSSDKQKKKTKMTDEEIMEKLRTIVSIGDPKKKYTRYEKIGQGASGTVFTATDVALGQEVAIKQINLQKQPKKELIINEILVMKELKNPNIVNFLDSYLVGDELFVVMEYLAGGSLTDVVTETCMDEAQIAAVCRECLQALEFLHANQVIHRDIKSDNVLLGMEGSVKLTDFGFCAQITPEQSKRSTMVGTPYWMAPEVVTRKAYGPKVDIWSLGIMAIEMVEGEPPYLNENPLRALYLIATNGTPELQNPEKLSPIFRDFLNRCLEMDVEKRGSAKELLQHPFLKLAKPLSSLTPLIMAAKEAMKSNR
Procedure: Synthetic heptapeptides were used to examine the activity of γ-PAK with manganese and magnesium. The peptides were incubated with γ-PAK (2.5 units), activated by autophosphorylation in the presence of Cdc42(GTPγS) and 10 mM MgCl2 or 6 mM MnCl2 as described under Experimental Procedures.

PKC = assay: Rates of phosphorylation of synthetic peptides by PKC; format: biochemical, bovine; details: for 32P incorporated: PKC (3.4 units), with Ca2+ and phospholipids, 0.14 mM ATP; for 32P incorporated, %: PKC, AKRASAA taken as 100%
From the text: as §1
(§4) Reactions with PKA (10.5 units) were carried out under the same conditions as with γ-PAK except that 0.14 mM ATP was used. Reactions with PKC (3.4 units) were performed as with PKA, with the addition of 0.4 mM CaCl2, phosphatidylinositol (15 μg/mL), phosphatidylserine (15 μg/ mL), and 1,2-diolein (3 μg/mL), as described [Tuazon, P. T., et al., (1989), supra]. A unit of PKA or PKC is defined as the amount of enzyme that incorporates 1 pmol of phosphate/min at 30° C. into histone IIAS or histone 1, respectively.
PKA and PKC are known to require basic amino acids on the N-terminal side of the phosphorylatable serine/ threonine. To distinguish their substrate specificities from that of γ-PAK, the relative rates of phosphorylation were determined with the synthetic peptide substrates using the conditions for γ-PAK, with the addition of Ca^2+ and phospholipids for PKC. The rates shown in Table 5 are calculated with equivalent units of enzyme; the rate of phosphorylation of the peptide AKRASAA (SEQ ID NO:6) is taken as 100% for all three enzymes. As would be expected, PKA preferentially phosphorylated the peptides that contained RR or RK at the −3 and −2 positions and with […] residues or proline at the −4 and −1 positions inhibitory. PKC recognized SKR>RKS>KKS. The most notable difference between γ-PAK and PKA or PKC is the effect of acidic residues on the susceptibility of the peptide to be phosphorylated. An acidic residue in the −1 or −4 position was beneficial for γ-PAK but was detrimental for both PKA and PKC (Table 5). […] In addition, γ-PAK could not tolerate an arginine in the −3 position when lysine was in the −2 position.

PKA = target: T2, PKA (Bos taurus, UniProt P00517); assay: Rates of phosphorylation of synthetic peptides by PKA; format: biochemical, bovine; details: for 32P incorporated: PKA (10.5 units), 0.14 mM ATP; for 32P incorporated, %: PKA, AKRASAA taken as 100%
T2 construct: the purified catalytic subunit of cAMP-dependent protein kinase from bovine heart was a gift; from tissue; host or cells: bovine heart (gift from Dr. William H. Fletcher)
From the text: as §1, with “Myosin light chain from rabbit skeletal muscle was a gift from Dr. James Stull, University of Texas Southwestern Medical Center, Dallas, Tex.; rat prolactin was provided by Dr. Ameae Walker, University of California, Riverside, Calif.; and the purified catalytic subunit of cAMP-dependent protein kinase from bovine heart was a gift from Dr. William H. Fletcher, J. L. Pettis Memorial V. A. Hospital, Loma Linda, Calif.” left out
as §4
PKA and PKC are known to require basic amino acids on the N-terminal side of the phosphorylatable serine/ threonine. To distinguish their substrate specificities from that of γ-PAK, the relative rates of phosphorylation were determined with the synthetic peptide substrates using the conditions for γ-PAK, with the addition of Ca^2+ and phospholipids for PKC.

γ-PAK [4] = assay: Phosphorylation of protein substrates by γ-PAK; format: biochemical, rabbit; details: for substrate for γ-PAK (in words): proteins
Procedure: as §2
Target sequence in this assay (Q29502 249-524 limits assumed): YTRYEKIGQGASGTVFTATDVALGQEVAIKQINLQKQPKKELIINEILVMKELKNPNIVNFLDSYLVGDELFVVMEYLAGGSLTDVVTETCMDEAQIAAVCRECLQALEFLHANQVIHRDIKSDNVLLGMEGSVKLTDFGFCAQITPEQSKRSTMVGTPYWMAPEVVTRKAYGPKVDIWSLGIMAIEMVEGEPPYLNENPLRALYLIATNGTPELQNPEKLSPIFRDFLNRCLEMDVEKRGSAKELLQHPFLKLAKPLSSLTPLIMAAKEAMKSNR
A number of proteins were examined as substrates, and their relative rates of phosphorylation were compared (Table 6).

[5] = Cdc42(GTPγS)-activated γ-PAK, peptide 1 mM, KKRKSAA = 100
[6] = proteolytically (trypsin) activated γ-PAK, peptide 1 mM, compared to KKRKSAA = 100
[7] = proteolytically activated γ-PAK (5.6 units), peptide 1 mM, 30 min at 30° C.
[8] = Table 2, influence of basic amino acids, γ-PAK 1.6 units, ATP 0.2 mM
[9] = γ-PAK, calculated with equivalent units of enzyme
[10] = Table 3, influence of acidic amino acids
[11] = Table 4, influence of proline and glycine

Substance	Vmax (γ-PAK [2]; [10])	Km (γ-PAK [2]; [10])	32P incorporated (PKA)	32P incorporated, % (PKA)	overall rate of phosphorylation (Vmax/Km) compared to AKRASAA (γ-PAK [2])	rel rate (%) (γ-PAK [1]; [5])	rel rate (%) (γ-PAK [1]; [6])	32P incorporated (γ-PAK [1]; [7])	substrate for γ-PAK (in words) (γ-PAK [1])	32P incorporated, % (γ-PAK [1]; γ-PAK)	32P incorporated (γ-PAK [1]; [9])	32P incorporated (PKC)	32P incorporated, % (PKC)	substrate for γ-PAK (in words) (γ-PAK [4])	also measured
AKAASAA (AKAASAA-NH2) [synthetic peptide with an amide C-terminal group]						3%	2%	5 pmol/min/µg	did not serve as substrate; also recorded: could not be phosphorylated						Km (γ-PAK [2]; [8]): > 5000 µM; phosphorylation using ATP(Mg) or ATP(Mn) (in words) (γ-PAK [3]): not phosphorylated
AKKASAA (AKKASAA-NH2) [synthetic peptide with an amide C-terminal group]									poor substrates						phosphorylation using ATP(Mg) or ATP(Mn) (in words) (γ-PAK [3]): not phosphorylated
casein														not substrates	
cdc42: small G protein; not a substrate for γ-PAK (data not shown)														not substrates	
protamine														not a good substrate; also recorded: did not serve as substrates	32P incorporated (γ-PAK [4]; 2 μg protein substrate, 20 units active γ-PAK, 15 min at 30° C.): 0 pmol; substrate for γ-PAK (in words) (γ-PAK [4]; listed as Protamine): not substrates; rel rate (γ-PAK [4]; relative to histone 2B = 100): 0%

The next lines start with results.

Vmax (γ-PAK [2]; [10])	Km (γ-PAK [2]; [10])	32P incorporated (PKA)	32P incorporated, % (PKA)	overall rate of phosphorylation (Vmax/Km) compared to AKRASAA (γ-PAK [2])	Substance	rel rate (%) (γ-PAK [1]; [5])	rel rate (%) (γ-PAK [1]; [6])	32P incorporated (γ-PAK [1]; [7])	substrate for γ-PAK (in words) (γ-PAK [1])	32P incorporated, % (γ-PAK [1]; γ-PAK)	32P incorporated (γ-PAK [1]; [9])	32P incorporated (PKC)	32P incorporated, % (PKC)	substrate for γ-PAK (in words) (γ-PAK [4])	also measured
11.04 pmol/min	460 µM	4.8 pmol/unit	100%		AKRASAA (AKRASAA-NH2) [synthetic peptide with an amide C-terminal group]	189%	141%	426 pmol/min/µg		100%	26.8 pmol/unit	3.0 pmol/unit	100%		Vmax (γ-PAK [2]; [8]): 1.04 pmol/min; Km (γ-PAK [2]; [8]): 460 µM; Vmax (γ-PAK [2]; [11]): 1.04 pmol/min; Km (γ-PAK [2]; [11]): 460 µM
2.22 pmol/min	1420 µM	3.6 pmol/unit	75%	0.7 fold	AKRASEA (AKRASEA-NH2) [synthetic peptide with an amide C-terminal group]	88%	108%	326 pmol/min/µg		68%	18.3 pmol/unit	0.2 pmol/unit	6%		rate of phosphorylation compared to AKRASAA (γ-PAK [1]; γ-PAK): 71%; increase of Km compared to AKRASAA (γ-PAK [2]): ~3 fold
2.48 pmol/min	890 µM	1.7 pmol/unit	4%	1.3 fold	EKRASAA (EKRASAA-NH2) [synthetic peptide with an amide C-terminal group]	151%	160%	484 pmol/min/µg		113%	30.2 pmol/unit	0.1 pmol/unit	3%		rate of phosphorylation compared to AKRASAA (γ-PAK [1]; γ-PAK): 113%; increase of Km compared to AKRASAA (γ-PAK [2]): 2 fold; Vmax (γ-PAK [2]; text summary b32): 2.48 pmol/min
		6.9 pmol/unit		2 fold	PKRASAA (PKRASAA-NH2) [synthetic peptide with an amide C-terminal group]	184%	209%	636 pmol/min/µg		151%	40.5 pmol/unit	8.7 pmol/unit	264%		decrease of Km compared to AKRASAA (γ-PAK [2]): ≈ 2 fold; increase of Vmax compared to AKRASAA (γ-PAK [2]): no effect; Vmax (γ-PAK [2]; [11]): 1.10 pmol/min; Km (γ-PAK [2]; [11]): 240 µM
		5.4 pmol/unit			RKKKSAA (RKKKSAA-NH2) [synthetic peptide with an amide C-terminal group]	3%	0%	0 pmol/min/µg	poor substrates	0%	0.1 pmol/unit	3.1 pmol/unit	94%		
